Results as given in the NIST ThermoML archive (doi:10.1007/s10765-009-0568-4).
Where “and” joins values, the source holds several entries; their conditions need not be identical. Equal values may be shown once. Numbers after ± are expanded uncertainties.

Experiment: molar heat capacity at constant pressure
Details: 101.33 kPa, Crystal

O=C([O-])c1ccccc1.[K+] [potassium benzoate]
Details	molar heat capacity at constant pressure
78.05 K	64.02 ± 0.61 J/K/mol
79.77 K	65.4 ± 0.62 J/K/mol
80 K	66.51 ± 0.63 J/K/mol
82.44 K	67.11 ± 0.64 J/K/mol
85 K	69.25 ± 0.65 J/K/mol
85.05 K	69.06 ± 0.65 J/K/mol
87.58 K	70.57 ± 0.66 J/K/mol
90 K	71.99 ± 0.88 J/K/mol
90.05 K	72.16 ± 0.88 J/K/mol
92.46 K	73.51 ± 0.89 J/K/mol
94.82 K	75.08 ± 0.9 J/K/mol
95 K	74.71 ± 0.9 J/K/mol
97.13 K	76.49 ± 0.91 J/K/mol
99.4 K	77.52 ± 0.91 J/K/mol
100 K	77.41 ± 0.91 J/K/mol
101.6 K	78.59 ± 0.92 J/K/mol
103.8 K	79.84 ± 0.93 J/K/mol
105 K	80.09 ± 0.93 J/K/mol
106 K	81.03 ± 0.93 J/K/mol
108.1 K	82.38 ± 0.94 J/K/mol
110 K	82.77 ± 0.94 J/K/mol
110.2 K	83.34 ± 0.94 J/K/mol
112.2 K	84.3 ± 0.95 J/K/mol
114.2 K	85.15 ± 0.95 J/K/mol
115 K	85.42 ± 0.96 J/K/mol
116.3 K	86.65 ± 0.96 J/K/mol
118.3 K	87.5 ± 0.97 J/K/mol
120 K	88.06 ± 0.97 J/K/mol
120.4 K	88.67 ± 0.97 J/K/mol
123.5 K	90.49 ± 0.98 J/K/mol
125 K	90.69 ± 0.99 J/K/mol
127.5 K	92.84 ± 1 J/K/mol
130 K	93.3 ± 1 J/K/mol
131.5 K	94.64 ± 1 J/K/mol
135 K	95.9 ± 1 J/K/mol
135.4 K	96.31 ± 1 J/K/mol
139.4 K	98.35 ± 1 J/K/mol
140 K	98.48 ± 1 J/K/mol
143.3 K	100.4 ± 1 J/K/mol
145 K	101 ± 1 J/K/mol
147.2 K	102.3 ± 1.1 J/K/mol
150 K	103.6 ± 1.1 J/K/mol
151.1 K	103.9 ± 1.1 J/K/mol
154.9 K	105.6 ± 1.1 J/K/mol
155 K	106.1 ± 1.1 J/K/mol
158.6 K	107.2 ± 1.1 J/K/mol
160 K	108.6 ± 1.1 J/K/mol
162.3 K	108.9 ± 1.1 J/K/mol
165 K	111.2 ± 1.1 J/K/mol
166 K	110.7 ± 1.1 J/K/mol
169.7 K	112.6 ± 1.1 J/K/mol
170 K	113.6 ± 1.1 J/K/mol
173.3 K	114.5 ± 1.1 J/K/mol
175 K	116.1 ± 1.1 J/K/mol
176.9 K	115.9 ± 1.1 J/K/mol
180 K	118.6 ± 1.1 J/K/mol
180.4 K	117.8 ± 1.1 J/K/mol
185 K	121 ± 1.2 J/K/mol
185.2 K	119.9 ± 1.2 J/K/mol
190 K	123.5 ± 1.2 J/K/mol
190.3 K	122.8 ± 1.2 J/K/mol
194.3 K	124.8 ± 1.2 J/K/mol
195 K	125.9 ± 1.2 J/K/mol
198.3 K	127 ± 1.2 J/K/mol
200 K	128.3 ± 1.2 J/K/mol
202.2 K	129 ± 1.2 J/K/mol
205 K	130.6 ± 1.2 J/K/mol
206.2 K	131.6 ± 1.2 J/K/mol
210 K	133 ± 1.2 J/K/mol
210.2 K	133.5 ± 1.2 J/K/mol
214.1 K	135.5 ± 1.3 J/K/mol
215 K	135.4 ± 1.3 J/K/mol
218.1 K	137.3 ± 1.3 J/K/mol
220 K	137.7 ± 1.3 J/K/mol
222.1 K	139.3 ± 1.3 J/K/mol
225 K	140 ± 1.3 J/K/mol
226.1 K	141 ± 1.3 J/K/mol
230 K	142.3 ± 1.3 J/K/mol
230.1 K	142.7 ± 1.3 J/K/mol
234 K	144.9 ± 1.3 J/K/mol
235 K	144.6 ± 1.3 J/K/mol
237.9 K	146.3 ± 1.3 J/K/mol
240 K	146.9 ± 1.3 J/K/mol
243.1 K	149 ± 1.3 J/K/mol
245 K	149.2 ± 1.3 J/K/mol
248.2 K	151.2 ± 1.3 J/K/mol
250 K	151.4 ± 1.3 J/K/mol
252.2 K	152.7 ± 1.4 J/K/mol
255 K	153.7 ± 1.4 J/K/mol
256.1 K	154.1 ± 1.4 J/K/mol
260 K	155.9 ± 1.4 J/K/mol
260.1 K	156.2 ± 1.4 J/K/mol
264.1 K	158.2 ± 1.4 J/K/mol
265 K	158.1 ± 1.4 J/K/mol
268.1 K	160.2 ± 1.4 J/K/mol
270 K	160.3 ± 1.4 J/K/mol
272.1 K	161.4 ± 1.4 J/K/mol
275 K	162.5 ± 1.4 J/K/mol
276.1 K	163.3 ± 1.4 J/K/mol
280 K	165.1 ± 1.4 J/K/mol and 164.6 ± 1.4 J/K/mol
284 K	166.4 ± 1.4 J/K/mol
285 K	166.8 ± 1.4 J/K/mol
287.9 K	168.1 ± 1.5 J/K/mol
290 K	168.9 ± 1.5 J/K/mol
291.8 K	169.9 ± 1.5 J/K/mol
295 K	171 ± 1.5 J/K/mol
295.9 K	171.5 ± 1.5 J/K/mol
298.15 K	172.3 ± 1.5 J/K/mol
299.8 K	172.8 ± 1.5 J/K/mol
300 K	173.1 ± 1.5 J/K/mol
303.7 K	174.3 ± 1.5 J/K/mol
305 K	175.2 ± 1.5 J/K/mol
307.8 K	176.1 ± 1.5 J/K/mol
310 K	177.3 ± 1.5 J/K/mol
311.7 K	177.6 ± 1.5 J/K/mol
315 K	179.3 ± 1.5 J/K/mol
315.6 K	179.5 ± 1.5 J/K/mol
319.5 K	180.7 ± 1.5 J/K/mol
320 K	181.4 ± 1.5 J/K/mol
323.5 K	182.2 ± 1.5 J/K/mol
325 K	183.4 ± 1.5 J/K/mol
327.4 K	183.7 ± 1.5 J/K/mol
330 K	185.4 ± 1.6 J/K/mol
331.4 K	185.4 ± 1.6 J/K/mol
335 K	187.4 ± 1.6 J/K/mol
335.5 K	187.1 ± 1.6 J/K/mol
339.4 K	188.7 ± 1.6 J/K/mol
340 K	189.4 ± 1.6 J/K/mol
343.5 K	190.7 ± 1.6 J/K/mol
345 K	191.4 ± 1.6 J/K/mol
346.5 K	192.2 ± 1.6 J/K/mol
349.5 K	193.4 ± 1.6 J/K/mol
350 K	193.3 ± 1.6 J/K/mol
353.5 K	195 ± 1.6 J/K/mol
355 K	195.3 ± 1.6 J/K/mol
357.5 K	196.3 ± 1.6 J/K/mol
360 K	197.2 ± 1.6 J/K/mol
361.4 K	197.9 ± 1.6 J/K/mol
365 K	199.1 ± 1.6 J/K/mol
365.3 K	199.4 ± 1.6 J/K/mol
369.2 K	200.8 ± 1.7 J/K/mol
370 K	201 ± 1.7 J/K/mol
373.3 K	202.3 ± 1.7 J/K/mol
375 K	202.9 ± 1.7 J/K/mol
377.4 K	203.7 ± 1.7 J/K/mol
380 K	204.8 ± 1.7 J/K/mol
381.4 K	205.6 ± 1.7 J/K/mol
385 K	206.6 ± 1.7 J/K/mol
385.4 K	206.8 ± 1.7 J/K/mol
389.4 K	208.1 ± 1.7 J/K/mol
390 K	208.4 ± 1.7 J/K/mol
393.4 K	209.9 ± 1.7 J/K/mol
395 K	210.3 ± 1.7 J/K/mol
397.3 K	211.1 ± 1.7 J/K/mol
